Measurements taken from PubChem BioAssay (NCI).
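1) Cells in 96-well plates. 2) Compound, 48 h, 5 concentrations. 3) Linear interpolation between surrounding doses. 4) Unreached endpoint = highest concentration. GI50 = concentration required for 50% inhibition of growth. TGI denotes the concentration required for complete inhibition of growth.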 Where a SMILES comes first, the peptide text is derived from it. Bridges are numbered along the chain shown (N, C = ends).

Legend:
Experiment in all cases: NCI anticancer screen, dose series, 48 h
M14 melanoma = test system: M14 melanoma
SF-295 CNS = test system: SF-295 CNS
HS 578T breast = test system: HS 578T breast
NCI-H226 lung = test system: NCI-H226 lung
NCI/ADR-RES ovarian = test system: NCI/ADR-RES ovarian
NCI-H23 lung = test system: NCI-H23 lung
SK-OV-3 ovarian = test system: SK-OV-3 ovarian
OVCAR-3 ovarian = test system: OVCAR-3 ovarian

| SMILES | GI50 (M14 melanoma) [µM] | TGI (M14 melanoma) [µM] | GI50 (SF-295 CNS) [µM] | TGI (SF-295 CNS) [µM] | GI50 (HS 578T breast) [µM] | TGI (HS 578T breast) [µM] | GI50 (NCI-H226 lung) [µM] | TGI (NCI-H226 lung) [µM] | GI50 (NCI/ADR-RES ovarian) [µM] | TGI (NCI/ADR-RES ovarian) [µM] | GI50 (NCI-H23 lung) [µM] | TGI (NCI-H23 lung) [µM] | GI50 (SK-OV-3 ovarian) [µM] | TGI (SK-OV-3 ovarian) [µM] | GI50 (OVCAR-3 ovarian) [µM] | TGI (OVCAR-3 ovarian) [µM] |
| --- | --- | --- | --- | --- | --- | --- | --- | --- | --- | --- | --- | --- | --- | --- | --- | --- |
| COc1ccccc1-c1ccc2c(N)c(C(=O)c3ccc4c(c3)OCO4)sc2n1 | 4.21 | 75 | 3.98 | 18.5 | 7.97 | 47.1 | 7.35 | 31.8 | 4.13 | 16.7 | 12.9 | 52.8 | 5.97 | 18.2 | 5.18 | 22 |
| CCCCCCCCC1C(C)c2c([nH]c3ccccc23)C2C(=O)N(c3ccccc3)C(=O)C21 (configuration not stated) |  | 28 |  | 29.8 |  |  |  | 25.9 |  |  |  | 14.7 |  | 51.1 |  | 16.7 |
| NS(=O)(=O)c1ccc(-n2nc(-c3ccccc3)cc2-c2cc(O)ccc2O)cc1 | 31.9 | 80.8 | > 100 | > 100 | > 100 | > 100 | > 100 | > 100 | > 100 | > 100 | 77.1 | > 100 |  |  | > 100 | > 100 |
| O=C(O)C1C2C=CC(O2)C1C(=O)NCc1ccncc1 (configuration not stated) |  | > 100 |  | > 100 |  | > 100 |  | > 100 |  |  |  |  |  | > 100 |  | > 100 |
| CCC(C)C1NC(=O)C(CC(C)C)NC(=O)C(C(C)C)NC(=O)C2CSSCC(NC1=O)C(=O)N2 (configuration not stated) (cyclo(CCVLI); disulfide 1-2; configuration not given here) |  | 1.01 |  | 0.34 |  | 0.271 |  |  |  | > 100 |  | 0.277 |  |  |  | 0.395 |
| O=C(O)CC(S)C(=O)O.[Li+].[Sb] (configuration not stated) | 39.5 | > 100 | 55.3 | > 100 | > 100 | > 100 | > 100 | > 100 | > 100 | > 100 | > 100 | > 100 |  |  | > 100 | > 100 |
| CC(=O)OC(C)(C)C[N+](=O)[O-] |  | > 100 |  | > 100 |  |  |  | > 100 |  |  |  | > 100 |  | > 100 |  | > 100 |
| CCOP(=O)(OCC)C(NC(c1ccccc1)c1ccccc1)c1ccsc1 (configuration not stated) | 16.5 | 30.5 | 18.4 | 36.9 | 29.7 | 66.3 | 13.7 | 28.8 | 14.4 | 29.7 | 19.9 | 35.5 |  |  | 16.1 | 32.2 |
| CC(O)(c1ccc(OCCC[N+](C)(C)C)cc1)C(C)(O)c1ccc(OCCC[N+](C)(C)C)cc1 (configuration not stated) |  | > 100 |  | > 100 |  |  |  | > 100 |  |  |  | > 100 |  | > 100 |  | > 100 |
| COC1/C=C/OC2(C)Oc3c(C)c(O)c4c(O)c(c(/C=N/N(c5ccccc5)c5ccccc5)c(O)c4c3C2=O)NC(=O)C(C)=C/C=C/C(C)C(O)C(C)C(O)C(C)C(OC(C)=O)C1C (configuration not stated) |  |  | 2.18 | 8.82 | 1.19 | 4.33 | 4.23 | 11.8 | 3.76 | 12.6 | 1.96 | 8.98 | 6.38 | 12.9 | 0.852 | 1.7 |
